This test relates to VA-ES-BJ tumor spheroid viability. Briefly: Anticancer human tumor VA-ES-BJ cell line growth inhibition.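 For all read-outs here: spheroids exposed to compounds for seven days.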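 For viability, T/C: percent of DMSO vehicle control viability so 100% = untreated growth.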 The following applies: spheroids with HUVEC and MSC; for viability, T/C: stronger effect = lower value. An excerpt: Multicellular complex tumor spheroid response to DNA repair inhibitors in combination with DNA-damaging drugs
This study explores the anticancer activities of DNA-damaging drugs and inhibitors of DNA damage repair, both as single agents and in combinations. Complex tumor spheroids comprised of malignant cells, endothelial cells and mesenchymal stem cells served as an in vitro model for human solid tumors. This model system incorporates physiologically relevant features and patient-derived or established malignant cell lines with clinically relevant genetic alterations from many tumor types. Twenty-six patient-derived or established malignant cell lines were evaluated representing sarcoma, melanoma, small cell lung cancer (SCLC), non-small cell lung cancer (NSCLC), as well as bladder, ovarian and pancreatic cancers. The concentration ranges selected for each drug and investigational agent were based upon clinically achievable concentrations if the clinical Cmax of the agent was known.
Compounds. The drugs and compounds olaparib (NSC753686), talazoparib (NSC767125), berzosertib (NSC777718), elimusertib (NSC800525), nedisertib (NSC802822), VX-984 (NSC792969), AZD-1390 (NSC803789), temozolomide (NSC362856), topotecan (NSC609699), trabectedin (NSC813783), staurosporine (NSC755774), and gemcitabine (NSC613327) were obtained from the National Cancer Institute (NCI) Developmental Therapeutics Program Chemical Repository. The FDA-approved anticancer drug set is available from the Developmental Therapeutics Program at https://dtp.cancer.gov/organization/dscb/obtaining/available_plates.htm. […] The stock solutions were prepared in dimethyl sulfoxide (DMSO, Sigma-Aldrich, St. Louis, MO, cat. D2650) at 400-fold the tested concentration and stored at -70 degrees C. Prior to their use, the stock solutions were diluted in fresh medium and the final DMSO concentration in the assay was 0.25% (v/v). All drugs and investigational agents were tested over a range starting from a high concentration at or near the clinical Cmax and decreasing in half-log increments. If the clinical Cmax for an agent had not been determined, the highest concentration tested was 10 microM.
Cell Lines. The patient-derived cancer cell (PDC) lines: 156681-154-R-J1-PDC, 283228-195-R-J1-PDC, 287954-098-R-J1-PDC, 292921-168-R-J2-PDC, 349418-098-R-PDC, 425362-245-T-J1-PDC, 556581-035-R-J1-PDC, and BL0293-F563-PDC were received from the NCI Patient-Derived Models Repository (PDMR, https://pdmr.cancer.gov). The established cell lines HS-SY-2 (RRID:CVCL_8719), MPNST, and SYO-1 (RRID:CVCL_7146) were obtained from the Sloan Kettering Institute. The alveolar soft parts sarcoma cell line ASPS-1 (RRID:CVCL_S738) was established at the NCI and grown from internal seed stocks. The following established cell lines were purchased from the American Type Culture Collection (ATCC, Manassas, VA): G-401 (ATCC, cat. CRL-1441, RRID:CVCL_0270), SW982 (ATCC, cat. HTB-93, RRID:CVCL_1734), VA-ES-BJ (ATCC, cat. CRL-2138, RRID:CVCL_1785), NCI-H719 (ATCC, cat. CRL-5837, RRID:CVCL_1582), NCI-H196 (ATCC, cat. CRL-5823, RRID:CVCL_1509), NCI-H841 (ATCC, cat. CRL-5845, RRID:CVCL_1595), NCI-H1618 (ATCC, cat. CRL-5879, RRID:CVCL_1480), NCI-H1876 (ATCC, cat. CRL-5902, RRID:CVCL_1503), DMS 114 (ATCC, cat. CRL-2066; RRID:CVCL_1174), NCI-H211 (ATCC, cat. CRL-5824; RRID:CVCL_1529), and SW 1271 (ATCC, cat. CRL-2177, RRID:CVCL_1716). The small cell lung cancer cell line COR-L88 was purchased from Sigma-Aldrich (cat. 92031917-1VL, RRID:CVCL_1141). The non-small cell lung cancer cell lines NCI-H226 (RRID:CVCL_1544) and NCI-H322M (RRID:CVCL_1557) were established at the NCI and grown from internal seed stocks. Pooled donor human umbilical vein endothelial cells (HUVEC, Lonza, cat. CC-2519) and human mesenchymal stem cells (hMSC, Lonza, cat. PT-2501) were purchased from Lonza (Walkersville, MD).
Cell Culture. All cells were maintained in an incubator at 37 degrees C and 5% CO2 with 95% humidity. […]

Structures are written as SMILES. “And” between values parts separate entries of the source, which are not always exact repeats. Identical values can stand only once.

Consider `O=C(c1cc(Cc2n[nH]c(=O)c3ccccc23)ccc1F)N1CCN(C(=O)C2CC2)CC1` + CC[C@@]1(O)C(=O)OCc2c1cc1n(c2=O)Cc2cc3c(CN(C)C)c(O)ccc3nc2-1, for which the half-maximal inhibitory concentration (IC50) is 12000 nM (curve of first compound, second compound 0.003 µM); 2080 nM (curve of first compound, second compound 0.00949 µM); less than 94.9 nM (curve of first compound, second compound 0.03 µM); less than 94.9 nM (curve of first compound, second compound 0.0949 µM); less than 94.9 nM (curve of first compound, second compound 0.3 µM). Further, the viability, T/C is 79.5% (second compound 0.003 µM, first compound 0.0949 µM); 86.5% (second compound 0.003 µM, first compound 0.3 µM); 84.7% (second compound 0.003 µM, first compound 0.949 µM); 72.9% (second compound 0.003 µM, first compound 3 µM); 54.3% (second compound 0.003 µM, first compound 9.49 µM); 35.1% (second compound 0.003 µM, first compound 30 µM). The viability, T/C is, setting by setting: (second compound 0.00949 µM, first compound 0.0949 µM) 54.4%; (second compound 0.00949 µM, first compound 0.3 µM) 62%; (second compound 0.00949 µM, first compound 0.949 µM) 56.3%; (second compound 0.00949 µM, first compound 3 µM) 46%; (second compound 0.00949 µM, first compound 9.49 µM) 30.9%; (second compound 0.00949 µM, first compound 30 µM) 13.7%. Moreover, the viability, T/C is 11.3% (second compound 0.03 µM, first compound 0.0949 µM); 11.9% (second compound 0.03 µM, first compound 0.3 µM); 11.7% (second compound 0.03 µM, first compound 0.949 µM); 8.85% (second compound 0.03 µM, first compound 3 µM); 4.72% (second compound 0.03 µM, first compound 9.49 µM); 3.5% (second compound 0.03 µM, first compound 30 µM). In addition, the viability, T/C is 6.59% (second compound 0.0949 µM, first compound 0.0949 µM); 7.45% (second compound 0.0949 µM, first compound 0.3 µM); 7.51% (second compound 0.0949 µM, first compound 0.949 µM); 7.62% (second compound 0.0949 µM, first compound 3 µM); 6.91% (second compound 0.0949 µM, first compound 9.49 µM); 2.51% (second compound 0.0949 µM, first compound 30 µM). The viability, T/C by setting is: (second compound 0.3 µM, first compound 0.0949 µM) 7.75%; (second compound 0.3 µM, first compound 0.3 µM) 8%; (second compound 0.3 µM, first compound 0.949 µM) 8.29%; (second compound 0.3 µM, first compound 3 µM) 8.19%; (second compound 0.3 µM, first compound 9.49 µM) 7.94%; (second compound 0.3 µM, first compound 30 µM) 4.56%.
For the compound `[2H]c1nc(C)nc([2H])c1-c1cc(NC[C@@H](C)c2cccc3c(C(=O)NC)ccnc23)ncn1`, the viability, T/C (compound 0.0316 µM) is 70.8% and 104% and 89.9%; the viability, T/C (compound 0.1 µM) was 77.2% and 94.7% and 88.6%; the viability, T/C (compound 0.316 µM) is 80% and 92.6% and 90.8%; the viability, T/C (compound 1 µM) is 79.4% and 104% and 99.8%; the viability, T/C (compound 3.16 µM) is 86.9% and 95.6% and 103%; the viability, T/C (compound 10 µM) is 83.2% and 99.6% and 104%. In addition, under “curve of compound”, the IC50 was greater than 10000 nM.
As for `Cn1ncnc1[C@H]1c2n[nH]c(=O)c3cc(F)cc(c23)N[C@@H]1c1ccc(F)cc1`, the viability, T/C is 82.2% and 101% and 87.7% (compound 0.00949 µM); 81.7% and 78.2% and 85.3% (compound 0.03 µM); 68.5% and 82.6% and 74.7% (compound 0.0949 µM); 55.8% and 65.9% and 58.5% (compound 0.3 µM); 33.7% and 41.4% and 36% (compound 0.949 µM); 7.23% and 7.48% and 6.56% (compound 3 µM). Moreover, the half-maximal inhibitory concentration (IC50) (curve of compound) is 400 nM and 619 nM and 469 nM.

For orientation: IC50 means the concentration needed to halve the response being measured. Usually viability, T/C stands for the result in the treated group divided by that in the control group, in per cent.

The values above are taken from PubChem BioAssay AID1845217 (Molecular Pharmacology Branch, DTP, NCI, 2023).
